From ChEMBL document CHEMBL1158231, “Antiviral sulfated steroids from the ophiuroid Ophioplocus januarii” (J Nat Prod, 1996) come the findings set out here.

The structures appear in SMILES notation.

Series [1] deals with Poliovirus 3. In words: Antiviral activity against human poliovirus 3 Sabin infected african green monkey Vero cells assessed as reduction of virus plaque formation at 10 ug/mL. In kind it is functional. Also on record: scale not given: the % may be the effect or the level left.
Series [2] relates to Respiratory syncytial virus. In words: Antiviral activity against RSV Long infected human Hep2 cells assessed as inhibition of viral-induced cytopathic effect at 10 ug/mL. In kind it is functional. As to conditions: HEp-2.
Series [3] has as its system Human alphaherpesvirus 1. Briefly: Antiviral activity against HSV1 F infected african green monkey Vero cells assessed as reduction of virus plaque formation at 20 ug/mL. Also on record: scale not given: the % may be the effect or the level left. The format is functional.
Series [4] has as its system Junin virus. In words: Antiviral activity against Junin virus IV 4454 infected african green monkey Vero cells assessed as reduction of virus plaque formation at 10 ug/mL. Also on record: scale not given: the % may be the effect or the level left. The format is functional, Mammarenavirus juninense.
For series [5], the system named is Respiratory syncytial virus. In words: Antiviral activity against RSV Long infected human Hep2 cells assessed as inhibition of viral-induced cytopathic effect at 20 ug/mL. The format is functional. As to conditions: HEp-2.
Series [6] concerns Junin virus. In words: Antiviral activity against Junin virus IV 4454 infected african green monkey Vero cells assessed as reduction of virus plaque formation at 20 ug/mL. The format is functional, Mammarenavirus juninense. Also on record: scale not given: the % may be the effect or the level left.
Series [7] concerns Poliovirus 3. In words: Antiviral activity against human poliovirus 3 Sabin infected african green monkey Vero cells assessed as reduction of virus plaque formation at 40 ug/mL. The format is functional. Further details: scale not given: the % may be the effect or the level left.
The test system of series [8] is Junin virus. Briefly: Antiviral activity against Junin virus IV 4454 infected african green monkey Vero cells assessed as reduction of virus plaque formation at 40 ug/mL. The format is functional, Mammarenavirus juninense. Further details: scale not given: the % may be the effect or the level left.
Series [9] concerns Human alphaherpesvirus 1. In words: Antiviral activity against HSV1 F infected african green monkey Vero cells assessed as reduction of virus plaque formation at 5 ug/mL. In kind it is functional. Also on record: scale not given: the % may be the effect or the level left.
Series [10] concerns Poliovirus 3. In words: Antiviral activity against human poliovirus 3 Sabin infected african green monkey Vero cells assessed as reduction of virus plaque formation at 5 ug/mL. Also on record: scale not given: the % may be the effect or the level left. In kind it is functional.
Series [11] concerns Human alphaherpesvirus 1. In words: Antiviral activity against HSV1 F infected african green monkey Vero cells assessed as reduction of virus plaque formation at 40 ug/mL. In kind it is functional. Also on record: scale not given: the % may be the effect or the level left.
The subject of series [12] is Junin virus. In words: Antiviral activity against Junin virus IV 4454 infected african green monkey Vero cells assessed as reduction of virus plaque formation at 5 ug/mL. The format is functional, Mammarenavirus juninense. Further details: scale not given: the % may be the effect or the level left.
Series [13] deals with Vero. In words: Cytotoxicity against african green monkey Vero cells at 20 ug/mL after 7 days by trypan blue exclusion method. Particulars: chlorocebus sabaeus, 168 h. The format is cell-based.
Series [14] has as its system Poliovirus 3. In words: Antiviral activity against human poliovirus 3 Sabin infected african green monkey Vero cells assessed as reduction of virus plaque formation at 20 ug/mL. The format is functional. Further details: scale not given: the % may be the effect or the level left.
The nature of series [15]: Cytotoxicity against african green monkey Vero cells assessed as cell viability at 40 ug/mL after 7 days by trypan blue exclusion method. As to conditions: chlorocebus sabaeus, read-out: Activity. The format is cell-based.
Series [16] concerns Respiratory syncytial virus. In words: Antiviral activity against RSV Long infected human Hep2 cells assessed as inhibition of viral-induced cytopathic effect at 5 ug/mL. In kind it is functional. As to conditions: HEp-2.
Series [17] deals with Human alphaherpesvirus 1. In words: Antiviral activity against HSV1 F infected african green monkey Vero cells assessed as reduction of virus plaque formation at 10 ug/mL. In kind it is functional. Also on record: scale not given: the % may be the effect or the level left.
Series [18] concerns Respiratory syncytial virus. Briefly: Antiviral activity against RSV Long infected human Hep2 cells assessed as inhibition of viral-induced cytopathic effect at 40 ug/mL. In kind it is functional. Particulars: HEp-2.
In series [19] the test system is Vero. Briefly: Cytotoxicity against african green monkey Vero cells at 10 ug/mL after 7 days by trypan blue exclusion method. Particulars: chlorocebus sabaeus, 168 h. The format is cell-based.
Series [20] has as its system Vero. In words: Cytotoxicity against african green monkey Vero cells at 5 ug/mL after 7 days by trypan blue exclusion method. The format is cell-based. As to conditions: chlorocebus sabaeus, 168 h.

Consider `CC(C)C/C=C/[C@@H](COS(=O)(=O)[O-])[C@H]1CC[C@H]2[C@@H]3CC[C@@H]4[C@H](O)[C@H](OS(=O)(=O)[O-])CC[C@]4(C)[C@H]3[C@@H](O)C[C@]12C.[Na+].[Na+]`, for which the Activity came to 0% in series [1]; 14% in [3]; 31% in series [4]; 36% in series [6]; 68% in series [7]; 47% in [8]. Also, the Activity is 0% in series [9]; 0% in series [10]; 39% in series [11]; 15% in series [12]; “Non-toxic” in [13]; 35% in series [14]. Besides, the Activity in [17] is on record as 0%; in [19], “Non-toxic”; in series [20], “Non-toxic”. For the same molecule, the inhibition at 10 µg/mL in series [2] stood at 25%. For the same molecule, the inhibition at 20 µg/mL in series [5] worked out at 50%. In addition, the viability at 168 h, 40 ug/mL in series [15] came out at 100%. Further, the inhibition at 5 µg/mL in series [16] stood at 0%. In [18], the inhibition at 40 µg/mL worked out at 75%.
Consider `CC(C)CCC[C@@H](COS(=O)(=O)[O-])[C@H]1CC[C@H]2[C@@H]3CC[C@@H]4[C@H](O)[C@H](OS(=O)(=O)[O-])CC[C@]4(C)[C@H]3[C@@H](O)C[C@]12C.[Na+].[Na+]`, for which the Activity in [1] is recorded as 0%; in series [3], 8%; in series [4], 26%; in series [6], 28%; in [7], 30%; in [8], 33%. The Activity was 2% in series [9]; 0% in series [10]; 35% in [11]; 24% in series [12]; “Non-toxic” in series [13]; 24% in series [14]. The Activity in [17] is listed as 7%; in series [19] it was “Non-toxic”; in series [20] it was “Non-toxic”. For the same molecule, in series [2], the inhibition at 10 µg/mL worked out at 0%. Also, in series [5], the inhibition at 20 µg/mL amounted to 25%. Besides, the viability at 168 h, 40 ug/mL in [15] was determined as 100%. Besides, the inhibition at 5 µg/mL in series [16] was 0%. Further, the inhibition at 40 µg/mL in series [18] worked out at 25%.
With `CC(C)/C=C/[C@@H](COS(=O)(=O)[O-])[C@H]1CC[C@H]2[C@@H]3CC[C@@H]4[C@H](O)[C@H](OS(=O)(=O)[O-])CC[C@]4(C)[C@H]3[C@@H](O)C[C@]12C.[Na+].[Na+]`, the Activity in series [1] was determined as 8%; in series [3], 12%; in series [4], 21%; in series [6], 29%; in series [7], 65%; in [8], 37%. Further, the Activity in series [9] is listed as 0%; in series [10], 0%; in [11], 36%; in [12] it was 10%; in series [13], “Non-toxic”; in series [14], 37%. For the same molecule, the Activity is listed as 0% in series [17], “Non-toxic” in series [19] and “Non-toxic” in series [20]. In series [2], the inhibition at 10 µg/mL was 0%. Moreover, the inhibition at 20 µg/mL in series [5] is 50%. Also, in [15], the viability at 168 h, 40 ug/mL came to 100%. Moreover, in [16], the inhibition at 5 µg/mL is 0%. For the same molecule, the inhibition at 40 µg/mL in series [18] was 75%.
As for `C=C(CC[C@@H](COS(=O)(=O)[O-])[C@H]1CC[C@H]2[C@@H]3CC[C@@H]4[C@H](O)[C@H](OS(=O)(=O)[O-])CC[C@]4(C)[C@H]3[C@@H](O)C[C@]12C)C(C)C.[Na+].[Na+]`, the Activity in series [1] is reported as 0%; in series [3], 20%; in series [4], 33%; in [6], 38%; in [7], 31%; in series [8] it was 54%. In addition, the Activity in series [9] is recorded as 3%; in series [10], 0%; in series [11], 36%; in series [12], 19%; in series [13], “Non-toxic”; in series [14] it was 16%. The Activity is listed as 11% in [17], “Non-toxic” in [19] and “Non-toxic” in series [20]. The inhibition at 10 µg/mL in [2] amounted to 25%. Also, the inhibition at 20 µg/mL in series [5] was 25%. In addition, the viability at 168 h, 40 ug/mL in [15] came to 100%. Further, in [16], the inhibition at 5 µg/mL is 0%. Also, the inhibition at 40 µg/mL in series [18] stood at 50%.
